The structures appear in SMILES notation.

The first assay deals with T1, IRAK4 (Homo sapiens, UniProt Q9NWZ3).
T1 construct: endogenous in cells; host or cells: OCI-LY10
T1 sequence (Q9NWZ3 1-460): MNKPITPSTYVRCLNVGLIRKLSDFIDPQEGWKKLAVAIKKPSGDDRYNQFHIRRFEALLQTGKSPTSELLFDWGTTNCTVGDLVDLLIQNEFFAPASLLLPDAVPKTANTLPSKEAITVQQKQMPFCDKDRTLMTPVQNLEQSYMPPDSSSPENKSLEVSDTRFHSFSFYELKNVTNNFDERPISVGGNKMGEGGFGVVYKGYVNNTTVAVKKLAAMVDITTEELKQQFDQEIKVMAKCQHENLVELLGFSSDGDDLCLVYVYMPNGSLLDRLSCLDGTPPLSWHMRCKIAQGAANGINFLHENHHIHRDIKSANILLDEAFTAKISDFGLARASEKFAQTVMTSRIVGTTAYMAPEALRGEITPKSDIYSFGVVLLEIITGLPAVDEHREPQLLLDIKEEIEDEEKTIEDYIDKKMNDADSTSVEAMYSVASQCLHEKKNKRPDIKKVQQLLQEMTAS
Kind of assay: IRAK4 MSD Degradation in OCI-LY10. The class given is cell-based. Conditions: OCI-LY10 cells, 4 hrs incubation, read-out: IRAK4 degradation in OCI-LY10 at 4 hrs: DC50. In a few lines:
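OCI-LY10 cells treated with 8-dose, 1:3 dilution series (top final 1 to 10 μM) for 4 to 24 h at 37 °C, 5% CO2. Lysate IRAK4 quantified by MSD sandwich immunoassay (mouse 2H9 capture, rabbit Y279 detection, SULFO-TAG anti-rabbit); DC50 from three-parameter logistic fit.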
In general, DC50 refers to the concentration at which degradation of the target reaches its halfway point. Take `COc1cc2nn([C@H]3CC[C@H](CN(C)C4CCN(c5cccc6c5n(C)c(=O)n6C5CCC(=O)NC5=O)CC4)CC3)cc2cc1NC(=O)c1ccc(F)c(C)n1` (stereo partly shown) [I-189]: the DC50 is under 50 nM.

On to `Cn1c(=O)n(C2CCC(=O)NC2=O)c2cccc(C[C@H]3C[C@H](OC4CCN(C[C@H]5CC[C@H](n6cc7cc(NC(=O)c8cccc(C(F)(F)F)n8)c(C(C)(C)O)cc7n6)CC5)CC4)C3)c21` (stereo partly shown) [I-203], for which the DC50 is under 50 nM. Same read-out and setting: for `Cn1c(=O)n(C2CCC(=O)NC2=O)c2cccc(CCC3CC4(CCN(C[C@H]5CC[C@H](n6cc7cc(NC(=O)c8cccc(OC(F)(F)F)n8)c(C(C)(C)O)cc7n6)CC5)CC4)C3)c21` (stereo partly shown) [I-204] the value was 50 to 100 nM. `CN(CCCO[C@H]1C[C@H](Cc2cccc3c2n(C)c(=O)n3C2CCC(=O)NC2=O)C1)C[C@H]1CC[C@H](n2cc3cc(NC(=O)c4cccc(C(F)(F)F)n4)c(C(F)F)cc3n2)CC1` (stereo partly shown) [I-205]: the half-maximal degradation concentration (DC50) was 50 to 100 nM. As for `Cc1nc(C(=O)Nc2cc3cn([C@H]4CC[C@H](CN5CCC6(CC5)CC(CCc5cccc7c5n(C)c(=O)n7C5CCC(=O)NC5=O)C6)CC4)nc3cc2C(C)(C)O)ccc1F` (stereo partly shown) [I-206], the DC50 is under 50 nM. Consider `COc1cccc(C(=O)Nc2cc3cn([C@H]4CC[C@H](CN5CCC6(CC5)CC(CCc5cccc7c5n(C)c(=O)n7C5CCC(=O)NC5=O)C6)CC4)nc3cc2C(C)(C)O)n1` (stereo partly shown) [I-207], for which the DC50 was 50 to 100 nM.

Turning to `CN(C[C@H]1CC[C@H](n2cc3cc(NC(=O)c4cccc(C(F)(F)F)n4)c(N4CCOCC4)cc3n2)CC1)C1CCN(Cc2cccc3c2n(C)c(=O)n3C2CCC(=O)NC2=O)CC1` (stereo partly shown) [I-214], the 50% degradation concentration (DC50) fell in the range of 50 to 100 nM.

For `Cn1c(=O)n(C2CCC(=O)NC2=O)c2cccc(C3CCN(C[C@H]4CC[C@H](n5cc6cc(NC(=O)c7cccc(C(F)(F)F)n7)c(C(C)(C)O)cc6n5)CC4)CC3)c21` (stereo partly shown) [I-226], the half-maximal degradation concentration (DC50) was under 50 nM. The same measure, in the same setting: under `CN(CCCC#Cc1cccc2c1n(C)c(=O)n2C1CCC(=O)NC1=O)C[C@H]1CC[C@H](n2cc3cc(NC(=O)c4cccc(C(F)(F)F)n4)c(C(C)(C)O)cc3n2)CC1` (stereo partly shown) [I-228, N-(2-((1r,4r)-4-(((5-(1-(2,6-dioxopiperidin-3-yl)-3-methyl-2-oxo-2,3-dihydro-1H-benzo[d]imidazol-4-yl)pent-4-yn-1-yl)(methyl)amino)methyl)cyclohexyl)-6-(2-hydroxypropan-2-yl)-2H-indazol-5-yl)-6-(trifluoromethyl)picolinamide] stands under 50 nM.

Consider `Cn1c(=O)n(C2CCC(=O)NC2=O)c2cccc(CC3CCN(C[C@H]4CC[C@H](n5cc6cc(NC(=O)c7cccc(C(F)(F)F)n7)c(C(C)(C)O)cc6n5)CC4)CC3)c21` (stereo partly shown) [I-229], for which the 50% degradation concentration (DC50) was under 50 nM.

The same assay, now with this note: OCI-LY10 cells, 24 hrs incubation, read-out: IRAK4 degradation in OCI-LY10 at 24 hrs: DC50.
As for `CC(C)(O)c1cc2nn([C@H]3CC[C@H](CN4CCC5(CC4)CC(CNc4cccc6c4C(=O)N(C4CCC(=O)NC4=O)C6=O)C5)CC3)cc2cc1NC(=O)c1cccc(S(F)(F)(F)(F)F)n1` (stereo partly shown) [I-187], the DC50 was in the range of 50 to 100 nM. On the same count and under the same terms, for `COc1c(NC(=O)c2cccc(C(C)(F)F)n2)cc2cn([C@H]3CC[C@H](CN4CC5(CC(CCNc6cccc7c6C(=O)N(C6CCC(=O)NC6=O)C7=O)C5)C4)CC3)nc2c1C` (stereo partly shown) [I-188] the value was 50 to 100 nM; for `C[C@]1(CN2CCC3(CC2)CC(CCNc2cccc4c2C(=O)N(C2CCC(=O)NC2=O)C4=O)C3)Cc2cc(NC(=O)c3cnn4cccnc34)c(N3CCOCC3)cc2O1` (stereo partly drawn) [I-196, N-[(2R)-2-[[2-[2-[[2-(2,6-dioxo-3-piperidyl)-1,3-dioxo-isoindolin-4-yl]amino]ethyl]-7-azaspiro[3.5]nonan-7-yl]methyl]-2-methyl-6-morpholino-3H-benzofuran-5-yl]pyrazolo[1,5-a]pyrimidine-3-carboxamide], 500 to 1000 nM; for `CC(C)(O)c1cc2nc(N3CCC(CN4CCC5(CC4)CC(CCNc4cccc6c4C(=O)N(C4CCC(=O)NC4=O)C6=O)C5)CC3)oc2cc1NC(=O)c1cccc(C(F)(F)F)n1` (stereo not shown) [I-197], 500 to 1000 nM. The same measure, in the same setting: for `COc1cc2nc([C@H]3CC[C@H](CN4CC5(CC(CCNc6cccc7c6C(=O)N(C6CCC(=O)NC6=O)C7=O)C5)C4)CC3)oc2cc1NC(=O)c1cccc(C(C)(F)F)n1` (stereo partly shown) [I-198] the value was 50 to 100 nM; for `O=C1CCC(N2C(=O)c3cccc(NCCC4CC5(CCN(C[C@H]6CC[C@H](c7nc8cc(N9CCOCC9)c(NC(=O)c9cccc(C(F)(F)F)n9)cc8o7)CC6)CC5)C4)c3C2=O)C(=O)N1` (stereo partly shown) [I-199], 500 to 1000 nM; for `CC(F)(F)c1cccc(C(=O)Nc2cc3cn([C@H]4CC[C@H](CN5CC6(CC(CCNc7cccc8c7C(=O)N(C7CCC(=O)NC7=O)C8=O)C6)C5)CC4)nc3cc2OC2CC2)n1` (stereo partly shown) [I-200], 50 to 100 nM. Still for that read-out and setting: under `CC(C)Oc1cc2nn([C@H]3CC[C@H](CN4CCC5(CC4)CC(Nc4cccc6c4C(=O)N(C4CCC(=O)NC4=O)C6=O)C5)CC3)cc2cc1NC(=O)c1cccc(C(F)(F)F)n1` (stereo partly shown) [I-202] stands 50 to 100 nM; under `COc1cc2nn([C@H]3CC[C@H](CN4CCC5(CC4)CC(CCNc4cccc6c4C(=O)N(C4CCC(=O)NC4=O)C6=O)C5)CC3)cc2cc1NC(=O)c1nc(C(F)(F)F)cs1` (stereo partly shown) [I-208], 100 to 500 nM; under `COc1cc2nn([C@H]3CC[C@H](CN4CCC5(CC4)CC(CNc4cccc6c4C(=O)N(C4CCC(=O)NC4=O)C6=O)C5)CC3)cc2cc1NC(=O)c1cccc(C(F)F)n1` (stereo partly shown) [I-209], under 50 nM.

On to `COc1cc2nn([C@H]3CC[C@H](CN(C)[C@H]4CC[C@H](CNc5cccc6c5C(=O)N(C5CCC(=O)NC5=O)C6=O)CC4)CC3)cc2cc1NC(=O)c1cccc(C(F)(F)F)n1` (stereo partly shown) [I-210], for which the DC50 was 50 to 100 nM. The same measure, in the same setting: under `COc1cc2nn([C@H]3CC[C@H](CN(C)[C@H]4CC[C@H](Nc5cccc6c5C(=O)N(C5CCC(=O)NC5=O)C6=O)CC4)CC3)cc2cc1NC(=O)c1cccc(C)n1` (stereo partly shown) [I-211] stands under 50 nM.

As for `CCOc1cc2nn([C@H]3CC[C@H](CN4CCC5(CC4)CC(CCNc4cccc6c4C(=O)N(C4CCC(=O)NC4=O)C6=O)C5)CC3)cc2cc1NC(=O)c1cccc(C(F)(F)F)n1` (stereo partly shown) [I-212], the DC50 lay in the range of 100 to 500 nM. For `COc1cc2nn([C@H]3CC[C@H](CN(C)CCCO[C@H]4C[C@@H](Nc5cccc6c5C(=O)N(C5CCC(=O)NC5=O)C6=O)C4)CC3)cc2cc1NC(=O)c1cccc(C(F)(F)F)n1` (stereo partly shown) [I-213], the half-maximal degradation concentration (DC50) lay in the range of 100 to 500 nM. Same read-out and setting: under `COc1cc2nn([C@H]3CC[C@H](CN4CCC5(CC4)CC(CNc4cccc6c4C(=O)N(C4CCC(=O)NC4=O)C6=O)C5)CC3)cc2cc1NC(=O)c1cccc(-c2cnn(C)c2)n1` (stereo partly shown) [I-218] stands 50 to 100 nM. On the same count and under the same terms, under `COc1cc2nn([C@H]3CC[C@H](CN(C)C4CCC5(CC4)CC(CNc4cccc6c4C(=O)N(C4CCC(=O)NC4=O)C6=O)C5)CC3)cc2cc1NC(=O)c1cccc(-c2cnn(C)c2)n1` (stereo partly shown) [I-219] stands 50 to 100 nM.

Regarding `COc1cc2nn([C@H]3CC[C@H](CN4CCC5(CC4)CCN(c4cccc6c4C(=O)N(C4CCC(=O)NC4=O)C6=O)CC5)CC3)cc2cc1NC(=O)c1cccc(C(F)(F)F)n1` (stereo partly shown) [I-220], the 50% degradation concentration (DC50) lay within 50 to 100 nM. For `CN(CCCO[C@H]1C[C@H](Nc2cccc3c2C(=O)N(C2CCC(=O)NC2=O)C3=O)C1)C[C@H]1CC[C@H](n2cc3cc(NC(=O)c4coc(-c5ccnc(NCC6CC6)c5)n4)c(C(C)(C)O)cc3n2)CC1` (stereo partly shown) [I-221], the DC50 was under 50 nM. The same measure, in the same setting: for `COc1cc2nn([C@H]3CC[C@H](CN4CCC5(CC4)CC(CNc4ccc6c(c4)C(=O)N(C4CCC(=O)NC4=O)C6=O)C5)CC3)cc2cc1NC(=O)c1cccc(C(F)(F)F)n1` (stereo partly shown) [I-222] the value was 50 to 100 nM; for `COc1cc2nn([C@H]3CC[C@H](CN(C)C4CCC5(CC4)CC(Nc4cccc6c4C(=O)N(C4CCC(=O)NC4=O)C6=O)C5)CC3)cc2cc1NC(=O)c1cccc(C(F)(F)F)n1` (stereo partly shown) [I-223], 50 to 100 nM; for `COc1cc2nn([C@H]3CC[C@H](CN4CCC5(CC4)CC(Nc4cccc6c4C(=O)N(C4CCC(=O)NC4=O)C6=O)C5)CC3)cc2cc1NC(=O)c1ccc(F)c(C)n1` (stereo partly shown) [I-224], under 50 nM. Regarding `CN(CCCO[C@H]1C[C@H](Nc2cccc3c2C(=O)N(C2CCC(=O)NC2=O)C3=O)C1)C[C@H]1CC[C@H](n2cc3cc(N(C)C(=O)c4cccc(C(F)(F)F)n4)c(C(C)(C)O)cc3n2)CC1` (stereo partly shown) [I-225], the DC50 lay in the range of 500 to 1000 nM. Still for that read-out and setting: for `COc1cc2nn([C@H]3CC[C@H](CN4CCO[C@@H](CCCNc5cccc6c5C(=O)N(C5CCC(=O)NC5=O)C6=O)C4)CC3)cc2cc1NC(=O)c1cccc(C(F)(F)F)n1` (stereo partly shown) [I-227] the value was 50 to 100 nM.

For the molecule `COc1cc2nn([C@H]3CC[C@H](CN(C)CCCO[C@H]4C[C@H](Nc5cccc6c5C(=O)N(C5CCC(=O)NC5=O)C6=O)C4)CC3)cc2cc1NC(=O)c1cccc(C(F)(F)F)n1` (stereo partly shown) [I-230], the half-maximal degradation concentration (DC50) was 50 to 100 nM. Still for that read-out and setting: under `COc1cc2nn([C@H]3CC[C@H](CN4CCC(COCCCNc5cccc6c5C(=O)N(C5CCC(=O)NC5=O)C6=O)CC4)CC3)cc2cc1NC(=O)c1cccc(C(C)(C)F)n1` (stereo partly shown) [I-231] stands 50 to 100 nM; under `COc1cc2nn([C@H]3CC[C@H](CN4CCC5(CC4)CC(CNc4cccc6c4C(=O)N(C4CCC(=O)NC4=O)C6=O)C5)CC3)cc2cc1NC(=O)c1cccc(C(C)(C)F)n1` (stereo partly shown) [I-232], 50 to 100 nM. The same measure, in the same setting: under `CC(C)(O)c1cc2nn([C@H]3CC[C@H](CN4CCO[C@@H](CCCNc5cccc6c5C(=O)N(C5CCC(=O)NC5=O)C6=O)C4)CC3)cc2cc1NC(=O)c1cccc(C(F)(F)F)n1` (stereo partly shown) [I-233] stands under 50 nM.

These data come from patent publication US12545659B2, “IRAK degraders and uses thereof” (Kymera Therapeutics, Inc., priority 2019, dated 2026).
